Patent US20260041679A1, “METHOD OF TREATING HYPERTENSION WITH THE ALDOSTERONE SYNTHASE INHIBITOR BAXDROSTAT” (CINCOR PHARMA, INC., priority 2022, published 2026)

What was measured:
[1] = Absorption, metabolism and excretion of [14C]-baxdrostat (Example 7); assay type: in vivo, human
Experimental: Eight male subjects each received a single oral 10 mg (containing approximately 100 uCi) dose of baxdrostat. Blood, urine and fecal samples were collected to determine the metabolic and excretion pathways of baxdrostat. Preliminary findings indicate that the mean excretion of radioactivity was 69.4% and 15.3%, of the dose in the urine and feces, respectively. Unchanged baxdrostat was the major component in urine and feces, constituting 16.8% and 6.1% of the dose, respectively.

[2] = Study 124 Part 1: safety, adverse events and serum potassium; assay type: in vivo, human
Text: The safety objectives for both Parts 1 and 2 are to evaluate vital signs, standing blood pressure, heart rate, physical examinations, ECG, body weight, and clinical laboratory assessments, including standard safety chemistry panel, hematology, coagulation, and urinalysis.

[3] = single oral 10 mg [14C] dose, preliminary findings
[4] = Part 1, 0.5 mg baxdrostat, n = 63
[5] = Part 1, 1 mg baxdrostat, n = 62
[6] = Part 1, 2 mg baxdrostat, n = 60

CCC(=O)N[C@@H]1CCCc2c(-c3ccc4c(c3)CCC(=O)N4C)cncc21 [baxdrostat, (R)—N-(4-(1-methyl-2-oxo-1,2,3,4-tetrahydroquinolin-6-yl)-5,6,7,8-tetrahydroisoquinolin-8-yl) propionamide]
mean blood:plasma concentration ratios ([1]; radioactivity): low association of radioactivity with blood cells | share of total systemic exposure by AUC0-inf in plasma ([1]; single oral 10 mg [14C] dose): 71% | unchanged baxdrostat in feces ([1]; single oral 10 mg [14C] dose): 6.1 % of the dose | unchanged baxdrostat in urine ([1]; single oral 10 mg [14C] dose): 16.8 % of the dose | mean excretion of radioactivity in feces [1, 3]: 15.3 % of the dose | mean excretion of radioactivity in urine [1, 3]: 69.4 % of the dose | Mean Change in Serum Potassium From Baseline at Week 8 (SD) ([2]; 0.5 mg): −0.07 (0.37) mmol/L | Mean Change in Serum Potassium From Baseline at Week 8 (SD) ([2]; 1 mg): 0.26 (0.47) mmol/L | Mean Change in Serum Potassium From Baseline at Week 8 (SD) ([2]; 2 mg): 0.12 (0.48) mmol/L | increase in mean potassium ([2]; 2 mg dose): 0.1 mEq/L | potassium elevations>6.2 mEq/L ([2]; Part 1): No potassium elevations>6.2 mEq/L were recorded | share of patients receiving baxdrostat with potassium>6 mEq/L ([2]; Part 1): ~1.6% | treatment emergent SAEs ([2]; Part 1): two treatment emergent SAEs (2 patients) and neither were deemed related to baxdrostat | patients with isolated instances of moderately elevated potassium>6 mEq/L ([2]; Part 1, all baxdrostat doses): Three | AESI, % [2, 4]: 1.6% | AESI, e - Number of events [2, 4]: 1 | AESI, n - Number of subjects [2, 4]: 1 | SAEs, % [2, 4]: 0.0% | SAEs, e - Number of events [2, 4]: 0 | SAEs, n - Number of subjects [2, 4]: 0 | TEAEs Drug-Related, % [2, 4]: 6.3% | TEAEs Drug-Related, e - Number of events [2, 4]: 6 | TEAEs Drug-Related, n - Number of subjects [2, 4]: 4 | TEAEs Leading to death, % [2, 4]: 0.0% | TEAEs Leading to death, e - Number of events [2, 4]: 0 | TEAEs Leading to death, n - Number of subjects [2, 4]: 0 | TEAEs Leading to dosing discontinuation, % [2, 4]: 1.6% | TEAEs Leading to dosing discontinuation, e - Number of events [2, 4]: 1 | TEAEs Leading to dosing discontinuation, n - Number of subjects [2, 4]: 1 | TEAEs Leading to study discontinuation, % [2, 4]: 1.6% | TEAEs Leading to study discontinuation, e - Number of events [2, 4]: 1 | TEAEs Leading to study discontinuation, n - Number of subjects [2, 4]: 1 | TEAEs, % [2, 4]: 28.6% | TEAEs, e - Number of events [2, 4]: 30 | TEAEs, n - Number of subjects [2, 4]: 18 | AESI, % [2, 5]: 1.6% | AESI, e - Number of events [2, 5]: 1 | AESI, n - Number of subjects [2, 5]: 1 | SAEs, % [2, 5]: 1.6% | SAEs, e - Number of events [2, 5]: 1 | SAEs, n - Number of subjects [2, 5]: 1 | TEAEs Drug-Related, % [2, 5]: 9.7% | TEAEs Drug-Related, e - Number of events [2, 5]: 10 | TEAEs Drug-Related, n - Number of subjects [2, 5]: 6 | TEAEs Leading to death, % [2, 5]: 0.0% | TEAEs Leading to death, e - Number of events [2, 5]: 0 | TEAEs Leading to death, n - Number of subjects [2, 5]: 0 | TEAEs Leading to dosing discontinuation, % [2, 5]: 3.2% | TEAEs Leading to dosing discontinuation, e - Number of events [2, 5]: 2 | TEAEs Leading to dosing discontinuation, n - Number of subjects [2, 5]: 2 | TEAEs Leading to study discontinuation, % [2, 5]: 0.0% | TEAEs Leading to study discontinuation, e - Number of events [2, 5]: 0 | TEAEs Leading to study discontinuation, n - Number of subjects [2, 5]: 0 | TEAEs, % [2, 5]: 30.6% | TEAEs, e - Number of events [2, 5]: 42 | TEAEs, n - Number of subjects [2, 5]: 19 | AESI, % [2, 6]: 6.7% | AESI, e - Number of events [2, 6]: 4 | AESI, n - Number of subjects [2, 6]: 4 | SAEs, % [2, 6]: 1.7% | SAEs, e - Number of events [2, 6]: 1 | SAEs, n - Number of subjects [2, 6]: 1 | TEAEs Drug-Related, % [2, 6]: 10.0% | TEAEs Drug-Related, e - Number of events [2, 6]: 8 | TEAEs Drug-Related, n - Number of subjects [2, 6]: 6 | TEAEs Leading to death, % [2, 6]: 1.7% | TEAEs Leading to death, e - Number of events [2, 6]: 1 | TEAEs Leading to death, n - Number of subjects [2, 6]: 1 | TEAEs Leading to dosing discontinuation, % [2, 6]: 3.3% | TEAEs Leading to dosing discontinuation, e - Number of events [2, 6]: 2 | TEAEs Leading to dosing discontinuation, n - Number of subjects [2, 6]: 2 | TEAEs Leading to study discontinuation, % [2, 6]: 1.7% | TEAEs Leading to study discontinuation, e - Number of events [2, 6]: 1 | TEAEs Leading to study discontinuation, n - Number of subjects [2, 6]: 1 | TEAEs, % [2, 6]: 23.3% | TEAEs, e - Number of events [2, 6]: 27 | TEAEs, n - Number of subjects [2, 6]: 14 | hyperkalemia leading to trial discontinuation ([2]; active Baxdrostat groups): No instances of hyperkalemia led to trial discontinuation
